The record followed here is patent US6215002A, “Pyrrolopyrrolone derivatives as inhibitors of neutrophil elastase” (priority 1996, dated 2001).

Structures can show the parent of a compound that is named as a salt.

The subject of one assay is Intracellular elastase. Briefly: Oral in vivo model using IL-8 induced lung infiltrates for the assessment of intracellular elastase inhibition (hamster test). The note with it: effective dose of less than 40 mg/kg, IL-8 intratracheal. The gist of the method: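 Fasted adult hamsters (n=4) given compound orally in water, with intratracheal 1 ug recombinant human IL-8; sacrificed 6 h later. Neutrophils from lung lavage and femoral bone marrow sonicated, granules disrupted, and elastase measured, with myeloperoxidase used to normalise for neutrophil recovery.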

For assay [1], the target named is T1, human neutrophil elastase (Homo sapiens, UniProt P08246).
T1 sequence (P08246 30-267): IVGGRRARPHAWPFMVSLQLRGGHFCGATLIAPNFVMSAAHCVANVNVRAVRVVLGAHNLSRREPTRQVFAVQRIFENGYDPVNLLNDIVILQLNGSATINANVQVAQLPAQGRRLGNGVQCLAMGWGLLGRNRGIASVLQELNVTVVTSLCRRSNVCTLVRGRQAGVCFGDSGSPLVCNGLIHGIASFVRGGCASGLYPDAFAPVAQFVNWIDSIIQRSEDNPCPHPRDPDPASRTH
Briefly: In vitro assay of human neutrophil elastase (HNE). The assay is classed as biochemical. The note with it: 118 nM purified human neutrophil elastase, pH 8.6, 15 min incubation at 30° C., MeO-succinyl-alanyl-alanyl-prolyl-valyl-p-nitroanilide substrate; read-out: HNE IC50. The gist of the method:
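Residual activity was taken as the 10 min rate of absorbance rise at 405 nm after adding 0.6 mM MeO-succinyl-AAPV-p-nitroanilide. Curve fitting of activity against concentration gave IC50.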

`CC(C)[C@H]1C(=O)N(S(C)(=O)=O)[C@H]2CCN(C(=O)c3ccc(CN(C(C)C)C(C)C)cc3)[C@H]12` (relative stereo) [Example 201, rel-(3R,3aR,6aS)-4-{4-(Diisopropylamino)-methy]benzoyl}3-isopropyl-1-methanesulfonyl-hexahydro-pyrrolo[3,2-b]pyrrol-2-one hydrochloride]: the duration of effect entry in the assay with Intracellular elastase is recorded as “at least 6 hours”. The IC50 in assay [1] is 46 nM.
Consider `CC(C)[C@H]1C(=O)N(S(C)(=O)=O)[C@H]2CCN(C(=O)c3ccco3)[C@H]12` (relative stereo) [Example 248, rel-(3R,3aR,6aS)-4-(Furan-2-carbonyl)-3-isopropyl-1-methanesulfonyl-hexahydro-pyrrolo[3,2-b]pyrrol-2-one], for which the duration of effect entry in the assay on Intracellular elastase is “at least 6 hours”. For the same molecule, in assay [1], the IC50 stood at 60 nM.
For `CC(C)[C@H]1C(=O)N(S(C)(=O)=O)[C@H]2CCN(C(=O)c3cccs3)[C@H]12` (relative stereo) [Example 249, rel-(3R,3aR,6aS)-3-Isopropyl-1-methanesulfonyl-4-(thiophene-2-carbonyl)-hexahydro-pyrrolo[3,2-b]pyrrol-2-one], in that order: “at least 6 hours” and 68 nM.
For the molecule `CC(C)[C@H]1C(=O)N(S(C)(=O)=O)[C@H]2CCN(C(=O)c3ccc(CN4CCCCC4)o3)[C@H]12.Cl` (relative stereo) [Example 250, rel-(3R,3aR,6aS)-3-Isopropyl-1-methanesulfonyl-4-(5-piperidin-1-ylmethyl-furan-2-carbonyl)-hexahydro-pyrrolo[3,2-b]pyrrol-2-one hydrochloride], the duration of effect entry with Intracellular elastase is “at least 6 hours”. Further, in assay [1], the IC50 worked out at 21 nM.
For `CC(C)[C@H]1C(=O)N(S(C)(=O)=O)[C@H]2CCN(C(=O)c3ccc(CN(C)C)o3)[C@H]12.Cl` (relative stereo) [Example 251, rel-(3R,3aR,6aS)-4-(5-Dimethylaminomethyl-furan-2-carbonyl)-3-isopropyl-1-methanesulfonyl-hexahydro-pyrrolo[3,2-b]pyrrol-2-one hydrochloride], in that order: “at least 6 hours” and 43 nM.
On the same counts, the results for `CC(C)[C@H]1C(=O)N(S(C)(=O)=O)[C@H]2CCN(C(=O)c3ccc(CNC4CC4)o3)[C@H]12` (relative stereo) [Example 252, rel-(3R,3aR,6aS)-4-(5-Cyclolpropylaminomethyl-furan-2-carbonyl)-3-isopropyl-1-methanesulfonyl-hexahydro-pyrrolo[3,2-b]pyrrol-2-one hydrochloride] are “at least 6 hours” and 14 nM.
On the same counts, the results for `CC(C)[C@H]1C(=O)N(S(C)(=O)=O)[C@H]2CCN(C(=O)c3cccc(CN(C)C)c3)[C@H]12` (relative stereo) [Example 253, rel-(3R3aR,6aS)-4-(3-Dimethylaminomethyl-benzoyl)-3-isopropyl-1-methanesulfonyl-hexahydro-pyrrolo[3,2-b]pyrrol-2-one hydrochloride] are “at least 6 hours” and 76 nM.
`CCC[C@H]1C(=O)N(S(C)(=O)=O)[C@H]2CCN(C(=O)/C=C/CN3CCN(C)CC3)[C@H]12.Cl.Cl` (relative stereo) [Example 254, rel-(3R,3aR,6aS)-1-Methanesulfonyl-4-[4-(4-methyl-piperazin-1-yl)-but-2E-enoyl]-3-propyl-hexahydro-pyrrolo[3,2-b]pyrrol-2-one dihydrochloride]: in the assay with Intracellular elastase, the duration of effect entry is given as “at least 6 hours”. Further, the concentration for half-maximal inhibition (IC50) in assay [1] was determined as 97 nM.
`CCC[C@@H]1C(=O)N(S(C)(=O)=O)[C@@H]2CCN(C(=O)CCCCCN3CCCCCC3)[C@@H]12` [Example 117, hydrochloride]: in the assay with Intracellular elastase, the duration of effect entry is listed as “at least 6 hours”. The IC50 in assay [1] is 27 nM.
On the same counts, the results for `CCC[C@@H]1C(=O)N(S(C)(=O)=O)[C@@H]2CCN(C(=O)CCN3CCCCC3)[C@@H]12.Cl` [Example 118, (3S,3aS,6aR)-1-Methanesulfonyl-4-(3-piperidin-1-yl-propionyl)-3-propyl-hexahydro-pyrrolo[3,2-b]pyrrol-2-one hydrochloride] are “at least 6 hours” and 73 nM.

One may read the IC50 as the midpoint of a concentration-inhibition curve.
